Data from US9695155B2, “Herbicidal substituted pyrimidinyloxy benzene compounds” (E. I. DU PONT DE NEMOURS AND COMPANY, priority 2013, dated 2017).

Assays:
[1] = test system: barnyardgrass; experiment: Test A preemergence; format: in vivo, Echinochloa crus-galli; settings: Echinochloa crus-galli, pre-emergence, 240 h, 0 to 100 scale where 0 is no effect and 100 is complete control
In short: (§1)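 Greenhouse pot test, loam/sand soil. Formulation: non-phytotoxic solvent mix plus surfactant. Pre: directed spray onto soil after sowing. Post: plants at 1–2 leaf, 2–10 cm. Rated visually vs untreated controls at ~10 d, 0 (no effect) to 100 (complete control).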

[2] = test system: giant foxtail; experiment: Test A preemergence; format: in vivo, Setaria faberii; settings: Setaria faberi, pre-emergence, 240 h, 0 to 100 scale where 0 is no effect and 100 is complete control
In short: as §1

[3] = test system: rice; experiment: Test B flooded paddy test; format: in vivo, Oryza sativa; settings: Oryza sativa; Flood, 250 g ai/ha; 0 to 100 scale where 0 is no effect and 100 is complete control; read-out: Plant response rating, Rice
In short: (§2)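 Compound added straight to paddy water, with pots kept flooded 3 cm above soil, on plants grown to the 2-leaf stage. Visual scoring 0-100 (100 = complete control) against untreated controls after 13 to 15 greenhouse days.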

[4] = test system: sedge, umbrella; experiment: Test B flooded paddy test; format: in vivo, Cyperus difformis; settings: Cyperus difformis, Flood, 250 g ai/ha; 0 to 100 scale where 0 is no effect and 100 is complete control; read-out: Plant response rating, Sedge, Umbrella
In short: as §2

[5] = test system: Heteranthera limosa; experiment: Test B flooded paddy test; format: in vivo; settings: Heteranthera limosa, Flood, 250 g ai/ha; 0 to 100 scale where 0 is no effect and 100 is complete control; read-out: Plant response rating, Ducksalad
In short: as §2

[6] = test system: barnyardgrass; experiment: Test B flooded paddy test; format: in vivo, Echinochloa crus-galli; settings: Echinochloa crus-galli; Flood, 250 g ai/ha; 0 to 100 scale where 0 is no effect and 100 is complete control; read-out: Plant response rating, Barnyardgrass
In short: as §2

[7] = test system: wheat, winter; experiment: Test C postemergence; format: in vivo, Triticum aestivum
In short: (§3)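 Visual ratings on a 0–100 scale (100 = complete control) were made versus untreated controls after 13–15 greenhouse days. Chemicals in a surfactant-containing non-phytotoxic solvent were applied either preemergence to seeds in loam–sand soil or postemergence to 1- to 4-leaf plants 2–18 cm tall.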

[8] = test system: galium; experiment: Test C postemergence; format: in vivo, Galium aparine; settings: Galium, post-emergence
In short: as §3

[9] = test system: lambsquarters; experiment: Test C postemergence; format: in vivo, Chenopodium album
In short: as §3

[10] = test system: morningglory; experiment: Test C postemergence; format: in vivo, Ipomoea coccinea
In short: as §3

[11] = test system: yellow nutsedge; experiment: Test C postemergence; format: in vivo, Cyperus esculentus
In short: as §3

[12] = test system: ragweed; experiment: Test C postemergence; format: in vivo, Ambrosia elatior
In short: as §3

[13] = test system: velvetleaf; experiment: Test C postemergence; format: in vivo, Abutilon theophrasti
In short: as §3

[14] = test system: chickweed; experiment: Test C postemergence; format: in vivo, Stellaria media; settings: Stellaria media, post-emergence
In short: as §3

[15] = 31 g ai/ha, postemergence, visual rating, scale 0 to 100 (0 no effect, 100 complete control), 13 to 15 days

SMILES: FC(F)c1cn(-c2ccccc2Oc2ncc(Cl)cn2)nn1 [Compound 147, 5-chloro-2-[2-[4-(difluoromethyl)-1H-1,2,3-triazol-1-yl]phenoxy]pyrimidine]
- pest or weed control at 125 g/ha ([1]; 125 g ai/ha, read-out: Plant response rating, Barnyardgrass): 100%
- pest or weed control at 500 g/ha ([1]; 500 g ai/ha, read-out: Barnyardgrass plant response rating): 100%
- pest or weed control at 125 g/ha ([2]; 125 g ai/ha, read-out: Plant response rating, Foxtail, Giant): 100%
- pest or weed control at 500 g/ha ([2]; 500 g ai/ha, read-out: Foxtail, Giant plant response rating): 100%
- plant injury at 250 g/ha [3]: 35%
- pest or weed control at 250 g/ha [4]: 75%
- pest or weed control at 250 g/ha [5]: 80%
- pest or weed control at 250 g/ha [6]: 35%
- Wheat plant response rating [7, 15]: 5
- plant injury at 16 g/ha ([7]; Triticum aestivum, post-emergence, 16 g ai/ha, postemergence, 0 is no effect, 100 is complete control, read-out: Plant response rating (0 to 100), Wheat): 0%
- plant injury at 125 g/ha ([7]; Triticum aestivum, post-emergence, 125 g ai/ha, postemergence, visual rating, scale 0 to 100 (0 no effect, 100 complete control), read-out: Plant response rating, Wheat): 15%
- plant injury at 62 g/ha ([7]; Triticum aestivum, post-emergence, Postemergence, 62 g ai/ha, scale 0 to 100 (0 no effect, 100 complete control), read-out: Plant response rating, Wheat): 10%
- pest or weed control at 16 g/ha ([8]; 16 g ai/ha, postemergence, 0 is no effect, 100 is complete control, read-out: Plant response rating (0 to 100), Galium): 85%
- pest or weed control at 31 g/ha ([8]; 31 g ai/ha, postemergence, visual rating, scale 0 to 100 (0 no effect, 100 complete control), 13 to 15 days, read-out: Galium plant response rating): 90%
- pest or weed control at 125 g/ha ([8]; 125 g ai/ha, postemergence, visual rating, scale 0 to 100 (0 no effect, 100 complete control), read-out: Plant response rating, Galium): 90%
- pest or weed control at 62 g/ha ([8]; Postemergence, 62 g ai/ha, scale 0 to 100 (0 no effect, 100 complete control), read-out: Plant response rating, Galium): 90%
- Lambsquarters plant response rating [9, 15]: 75
- pest or weed control at 16 g/ha ([9]; Chenopodium album, post-emergence, 16 g ai/ha, postemergence, 0 is no effect, 100 is complete control, read-out: Plant response rating (0 to 100), Lambsquarters): 60%
- pest or weed control at 125 g/ha ([9]; Chenopodium album, post-emergence, 125 g ai/ha, postemergence, visual rating, scale 0 to 100 (0 no effect, 100 complete control), read-out: Plant response rating, Lambsquarters): 98%
- pest or weed control at 62 g/ha ([9]; Chenopodium album, post-emergence, Postemergence, 62 g ai/ha, scale 0 to 100 (0 no effect, 100 complete control), read-out: Plant response rating, Lambsquarters): 90%
- Morningglory plant response rating [10, 15]: 70
- pest or weed control at 16 g/ha ([10]; Ipomoea, post-emergence, 16 g ai/ha, postemergence, 0 is no effect, 100 is complete control, read-out: Plant response rating (0 to 100), Morningglory): 70%
- pest or weed control at 125 g/ha ([10]; Ipomoea, post-emergence, 125 g ai/ha, postemergence, visual rating, scale 0 to 100 (0 no effect, 100 complete control), read-out: Plant response rating, Morningglory): 80%
- pest or weed control at 62 g/ha ([10]; Ipomoea, post-emergence, Postemergence, 62 g ai/ha, scale 0 to 100 (0 no effect, 100 complete control), read-out: Plant response rating, Morningglory): 75%
- Nutsedge, Yellow plant response rating [11, 15]: 0
- pest or weed control at 16 g/ha ([11]; Cyperus, post-emergence, 16 g ai/ha, postemergence, 0 is no effect, 100 is complete control, read-out: Plant response rating (0 to 100), Nutsedge, Yellow): 0%
- pest or weed control at 125 g/ha ([11]; Cyperus, post-emergence, 125 g ai/ha, postemergence, visual rating, scale 0 to 100 (0 no effect, 100 complete control), read-out: Plant response rating, Nutsedge, Yellow): 5%
- pest or weed control at 62 g/ha ([11]; Cyperus, post-emergence, Postemergence, 62 g ai/ha, scale 0 to 100 (0 no effect, 100 complete control), read-out: Plant response rating, Nutsedge, Yellow): 0%
- Ragweed plant response rating [12, 15]: 65
- pest or weed control at 16 g/ha ([12]; Ambrosia artemisiifolia, post-emergence, 16 g ai/ha, postemergence, 0 is no effect, 100 is complete control, read-out: Plant response rating (0 to 100), Ragweed): 40%
- pest or weed control at 125 g/ha ([12]; Ambrosia artemisiifolia, post-emergence, 125 g ai/ha, postemergence, visual rating, scale 0 to 100 (0 no effect, 100 complete control), read-out: Plant response rating, Ragweed): 85%
- pest or weed control at 62 g/ha ([12]; Ambrosia artemisiifolia, post-emergence, Postemergence, 62 g ai/ha, scale 0 to 100 (0 no effect, 100 complete control), read-out: Plant response rating, Ragweed): 75%
- Velvetleaf plant response rating [13, 15]: 70
- pest or weed control at 16 g/ha ([13]; Abutilon theophrasti, post-emergence, 16 g ai/ha, postemergence, 0 is no effect, 100 is complete control, read-out: Plant response rating (0 to 100), Velvetleaf): 55%
- pest or weed control at 125 g/ha ([13]; Abutilon theophrasti, post-emergence, 125 g ai/ha, postemergence, visual rating, scale 0 to 100 (0 no effect, 100 complete control), read-out: Plant response rating, Velvetleaf): 75%
- pest or weed control at 62 g/ha ([13]; Abutilon theophrasti, post-emergence, Postemergence, 62 g ai/ha, scale 0 to 100 (0 no effect, 100 complete control), read-out: Plant response rating, Velvetleaf): 85%
- pest or weed control at 16 g/ha ([14]; 16 g ai/ha, postemergence, 0 is no effect, 100 is complete control, read-out: Plant response rating (0 to 100), Chickweed): 15%
- pest or weed control at 31 g/ha ([14]; 31 g ai/ha, postemergence, visual rating, scale 0 to 100 (0 no effect, 100 complete control), 13 to 15 days, read-out: Chickweed plant response rating): 70%
- pest or weed control at 125 g/ha ([14]; 125 g ai/ha, postemergence, visual rating, scale 0 to 100 (0 no effect, 100 complete control), read-out: Plant response rating, Chickweed): 90%
- pest or weed control at 62 g/ha ([14]; Postemergence, 62 g ai/ha, scale 0 to 100 (0 no effect, 100 complete control), read-out: Plant response rating, Chickweed): 75%
